We go through five compounds from the NIST ThermoML archive (doi:10.1021/acs.jced.8b00684).

The conditions of series [1]: 100 kPa, Liquid, Falling or rolling sphere viscometry.
The nature of series [2]: xn = mol fraction of the nth substance listed. The conditions noted are these: 100 kPa, Liquid, Falling or rolling sphere viscometry, x2 = 0.

The term viscosity denotes the internal friction of a fluid under shear.

Each structure is given as a SMILES string. Numbers after ± are expanded uncertainties.

In the case of `CCCCCCn1cc[n+](C)c1.F[B-](F)(F)F` [1-hexyl-3-methylimidazolium tetrafluoroborate], the viscosity in series [1] (293.15 K) came out at 293 ± 20 mPa·s; in series [1] (298.15 K), 216 ± 13 mPa·s; in series [1] (303.15 K) it was 163 ± 9 mPa·s; in series [1] (313.15 K), 96.7 ± 4.3 mPa·s; in series [1] (323.15 K) it was 61.8 ± 2.5 mPa·s; in series [1] (333.15 K), 41.9 ± 1.7 mPa·s. Besides, the viscosity in series [1] (343.15 K) is listed as 29.5 ± 1.2 mPa·s; in series [1] (353.15 K), 21.7 ± 0.9 mPa·s.

With `CC#N` [acetonitrile], the viscosity in series [1] (293.15 K) is reported as 0.39 ± 0.02 mPa·s; in series [1] (298.15 K), 0.37 ± 0.02 mPa·s; in series [1] (303.15 K) it was 0.35 ± 0.02 mPa·s; in series [1] (313.15 K), 0.33 ± 0.01 mPa·s; in series [1] (323.15 K) it was 0.3 ± 0.01 mPa·s; in series [1] (333.15 K), 0.28 ± 0.01 mPa·s. In addition, the viscosity in series [1] (343.15 K) stood at 0.26 ± 0.01 mPa·s.

For `CC#N` [acetonitrile] + CCCCCCn1cc[n+](C)c1.F[B-](F)(F)F, the viscosity in series [2] (293.15 K) was 0.39 ± 0.02 mPa·s; in series [2] (298.15 K), 0.37 ± 0.02 mPa·s; in series [2] (303.15 K), 0.35 ± 0.02 mPa·s; in series [2] (313.15 K), 0.33 ± 0.01 mPa·s; in series [2] (323.15 K) it was 0.3 ± 0.01 mPa·s; in series [2] (333.15 K), 0.28 ± 0.01 mPa·s. Further, in series [2] (343.15 K), the viscosity came to 0.26 ± 0.01 mPa·s.

With `C[S+](C)[O-]` [dimethyl sulfoxide], the viscosity in series [1] (293.15 K) was determined as 2.21 ± 0.09 mPa·s; in series [1] (298.15 K), 2.01 ± 0.08 mPa·s; in series [1] (303.15 K), 1.84 ± 0.07 mPa·s; in series [1] (313.15 K) it was 1.56 ± 0.06 mPa·s; in series [1] (323.15 K), 1.34 ± 0.05 mPa·s; in series [1] (333.15 K), 1.17 ± 0.05 mPa·s. Besides, the viscosity in series [1] (343.15 K) came to 1.03 ± 0.04 mPa·s; in series [1] (353.15 K), 0.92 ± 0.04 mPa·s.

On to `C[S+](C)[O-]` [dimethyl sulfoxide] + CCCCCCn1cc[n+](C)c1.F[B-](F)(F)F, for which the viscosity in series [2] (293.15 K) was determined as 2.21 ± 0.09 mPa·s; in series [2] (298.15 K) it was 2.01 ± 0.08 mPa·s; in series [2] (303.15 K), 1.84 ± 0.07 mPa·s; in series [2] (313.15 K), 1.56 ± 0.06 mPa·s; in series [2] (323.15 K), 1.34 ± 0.05 mPa·s; in series [2] (333.15 K), 1.17 ± 0.05 mPa·s. Further, the viscosity in series [2] (343.15 K) was 1.03 ± 0.04 mPa·s; in series [2] (353.15 K), 0.92 ± 0.04 mPa·s.
